Experimental data taken from BindingDB's records for patent US12404261 (Novartis, 2025).

target: Cyclic GMP-AMP synthase (Homo sapiens, UniProt Q8N884); assay: Biochemical Assay
Description: The enzyme solution was transferred into the reagent buffer to give a final concentration of 30 nM. […] The reaction plates were then centrifuged at 1000 rpm for 1 minute and incubated at room temperature for 1 h.

Sequence of Cyclic GMP-AMP synthase (Q8N884 whole entry): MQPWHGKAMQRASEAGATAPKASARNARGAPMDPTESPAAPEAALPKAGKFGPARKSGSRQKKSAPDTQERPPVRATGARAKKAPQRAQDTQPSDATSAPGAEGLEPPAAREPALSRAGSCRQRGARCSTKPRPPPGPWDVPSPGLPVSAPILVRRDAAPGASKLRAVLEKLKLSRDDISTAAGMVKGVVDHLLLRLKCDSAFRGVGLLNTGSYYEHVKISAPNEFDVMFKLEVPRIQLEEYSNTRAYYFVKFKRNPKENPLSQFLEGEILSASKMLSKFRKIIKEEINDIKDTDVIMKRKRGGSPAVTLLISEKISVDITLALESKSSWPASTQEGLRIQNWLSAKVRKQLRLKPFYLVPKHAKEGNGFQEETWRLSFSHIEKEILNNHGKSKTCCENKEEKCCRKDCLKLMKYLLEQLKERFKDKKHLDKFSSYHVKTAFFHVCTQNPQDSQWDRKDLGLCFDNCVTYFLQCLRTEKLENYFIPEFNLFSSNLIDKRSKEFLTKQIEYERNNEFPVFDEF

Going from Cn1c(-c2nnc(C(F)(F)F)[nH]2)c(-c2cn[nH]c2)c2ccc(Cl)c(C#N)c21 [US12404261, Example 27] to Cn1c(-c2nnc(C(F)(F)F)[nH]2)c(-n2ccnc2)c2cc(O)c(Cl)cc21 [US12404261, Example 115], the IC50 falls from 137 nM to 67 nM (2-fold). The second is the more potent here.

COc1cc2c(-c3cn[nH]c3)c(-c3nnc(C(CN(C)C)OC)[nH]3)n(C)c2c(F)c1Cl (configuration not stated) [US12404261, Example 75] and COc1cc2c(-n3ccnc3)c(-c3nnc(C(CN(C)C)OC)[nH]3)n(C)c2c(F)c1Cl (configuration not stated) [US12404261, Example 97] are within 1.5-fold of each other in IC50: 70 nM for the first, 104 nM for the second.

Going from FC(F)(F)c1nnc(-c2[nH]c3cc(Cl)c(OC4CC4)cc3c2-n2ccnc2)[nH]1 [US12404261, Example 113] to COCC(C1=NNC(c2c(-n3ccnc3)c3cc(OC)c(Cl)c(F)c3n2C)N1)N1CCOCC1 (configuration not stated) [US12404261, Example 126], the IC50 falls from 861 nM to 411 nM (2.1-fold).

COc1cc2c(-n3ccnc3)c(-c3nnc(C(=O)N(C)C)[nH]3)n(C)c2c(C#N)c1C#N [US12404261, Example 120] showed an IC50 of 172 nM.
